From PMC4129951 (Nature chemical biology, 2010)

How the values were obtained:
[1] = biological target: T1, ProA(wt); γ-glutamyl phosphate reductase (Escherichia coli, UniProt P07004); test: NADPH oxidation in coupled assay with ProB; assay type: biochemical; conditions: γ-glutamyl phosphate formed in situ by ProB from L-Glu
T1 sequence (P07004 1-417): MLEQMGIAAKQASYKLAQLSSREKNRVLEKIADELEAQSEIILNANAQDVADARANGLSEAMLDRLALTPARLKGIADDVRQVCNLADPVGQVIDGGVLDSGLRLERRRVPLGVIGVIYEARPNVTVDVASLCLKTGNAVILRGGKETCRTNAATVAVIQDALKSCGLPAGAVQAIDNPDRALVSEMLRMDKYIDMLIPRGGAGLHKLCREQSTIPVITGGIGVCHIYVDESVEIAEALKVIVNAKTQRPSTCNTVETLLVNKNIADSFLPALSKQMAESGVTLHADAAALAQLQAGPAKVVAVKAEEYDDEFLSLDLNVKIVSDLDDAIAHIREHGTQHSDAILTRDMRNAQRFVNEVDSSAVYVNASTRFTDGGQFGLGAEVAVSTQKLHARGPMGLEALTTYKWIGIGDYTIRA

LysC; aspartokinase III = biological target: T2, LysC; aspartokinase III (Escherichia coli, UniProt P08660); test: in vitro reaction, product confirmed by LC-MS; assay type: biochemical; conditions: product trapped with L-Cys as β-aspartyl cysteine
T2 sequence (P08660 2-449): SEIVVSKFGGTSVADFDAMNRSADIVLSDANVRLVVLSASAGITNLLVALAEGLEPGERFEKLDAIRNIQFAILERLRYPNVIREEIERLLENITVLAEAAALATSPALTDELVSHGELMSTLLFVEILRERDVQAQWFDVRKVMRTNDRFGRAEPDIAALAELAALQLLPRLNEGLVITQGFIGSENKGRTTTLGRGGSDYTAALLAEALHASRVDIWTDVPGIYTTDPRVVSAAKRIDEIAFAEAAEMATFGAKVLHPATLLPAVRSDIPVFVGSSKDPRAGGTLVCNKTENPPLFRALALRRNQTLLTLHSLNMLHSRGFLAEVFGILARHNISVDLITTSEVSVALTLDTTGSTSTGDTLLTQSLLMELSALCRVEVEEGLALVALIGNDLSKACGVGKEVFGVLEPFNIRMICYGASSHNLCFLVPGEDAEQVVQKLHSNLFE

Structure (SMILES) | NADPH oxidation in coupled assay with ProB [1] | in vitro reaction, product confirmed by LC-MS (LysC; aspartokinase III)
NC(=O)C1=CN([C@@H]2O[C@H](COP(=O)(O)OP(=O)(O)OC[C@H]3O[C@@H](n4cnc5c(N)ncnc54)[C@H](OP(=O)(O)O)[C@@H]3O)[C@@H](O)[C@H]2O)C=CC1 [NADPH] | A coupled in vitro assay, which measures NADPH oxidation by ProA(wt) | 
N[C@@H](CC(=O)O)C(=O)O [L-Asp] |  | LysC from E. coli was used to convert L-Asp to β-aspartyl phosphate
